Results published in PubChem BioAssay (NCI).
“And” between values parts separate entries of the source, which are not always exact repeats. Equal entries are not always repeated.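 Briefly, cells in 96-well plates were exposed to five compound concentrations for 48 h, and endpoints were estimated by linear interpolation. Here, GI50 denotes the concentration required for 50% inhibition of growth. The concentration for full growth arrest is given as TGI.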

Legend:
Experiment in all cases: NCI tumour cell line growth inhibition, 48 h
IGROV1 ovarian = system: IGROV1 ovarian
LOX IMVI melanoma = system: LOX IMVI melanoma
SR leukemia = system: SR leukemia
MALME-3M melanoma = system: MALME-3M melanoma
COLO 205 colon = system: COLO 205 colon
ACHN renal = system: ACHN renal
SK-OV-3 ovarian = system: SK-OV-3 ovarian
HCT-116 colon = system: HCT-116 colon
HT29 colon = system: HT29 colon
NCI/ADR-RES ovarian = system: NCI/ADR-RES ovarian
NCI-H522 lung = system: NCI-H522 lung

Row | SMILES | TGI (IGROV1 ovarian) | TGI (LOX IMVI melanoma) [µM] | TGI (SR leukemia) [µM] | TGI (MALME-3M melanoma) [µM] | TGI (COLO 205 colon) | TGI (ACHN renal) [µM] | TGI (SK-OV-3 ovarian) | TGI (HCT-116 colon) | TGI (HT29 colon) [µM] | TGI (NCI/ADR-RES ovarian) | TGI (NCI-H522 lung) [µM] | GI50 (IGROV1 ovarian) [µM] | GI50 (LOX IMVI melanoma) [µM] | GI50 (COLO 205 colon) [µM] | GI50 (SK-OV-3 ovarian) [µM] | GI50 (HCT-116 colon) [µM] | GI50 (HT29 colon) [µM] | GI50 (NCI/ADR-RES ovarian) [µM]
1 | CCOC(=O)c1ccc(NC(=O)O/N=C(/Cl)CCl)cc1 | > 100 µM | > 100 | > 100 | > 100 | > 100 µM | > 100 | > 100 µM | > 100 µM | > 100 | > 100 µM |  |  |  |  |  |  |  | 
2 | O=C1NC(=S)NNC12c1ccccc1-c1ccccc12 | > 10 µM | > 10 | > 10 | > 10 | > 10 µM |  | > 10 µM |  | > 10 | > 10 µM |  |  |  |  |  |  |  | 
3 | O=C(/C=C/C=C/c1ccccc1)c1ccc2c(c1)CCCC2 | > 100 µM | > 100 | 87.9 |  | > 100 µM | > 100 | > 100 µM | > 100 µM | > 100 | 65.8 µM | 37.7 |  |  |  |  |  |  | 
4 | O=C(NC(CO)Cc1ccc(Oc2cc(CC(CO)NC(=O)OCc3ccccc3)ccc2OC(=O)OCc2ccccc2)cc1)OCc1ccccc1 (stereo not drawn) | 46.6 µM | 32.9 | 60.8 | 31.5 | 36 µM | 62.7 | 69.8 µM | 40.7 µM | > 100 | > 100 µM |  |  |  |  |  |  |  | 
5 | O=C(NCCCN(CCCCN(CCCNC(=O)C(F)(F)F)CCCc1ccccc1)CCCc1ccccc1)C(F)(F)F | 3.52 µM | 3.89 |  | 3.34 | 3.11 µM | 3.42 | 5.6 µM | 5.9 µM | 3.23 | 15.5 µM | 3.51 |  |  |  |  |  |  | 
6 | O=C(CCc1cc(O)cc(O)c1)NCCc1cc(O)cc(O)c1 | > 100 µM | > 100 | > 100 |  | > 100 µM | > 100 | > 100 µM | > 100 µM | > 100 | > 100 µM | > 100 |  |  |  |  |  |  | 
7 | CN(CCN(C)C(=S)NN)C(=S)NN | > 100 µM | > 100 | > 100 | > 100 | > 100 µM | > 100 | > 100 µM | > 100 µM | > 100 |  | > 100 |  |  |  |  |  |  | 
8 | COc1ccc(-c2c(C#N)c(O)n(NS(=O)(=O)c3ccc(C)cc3)c(=O)c2C#N)cc1 | > 100 µM | > 100 |  | > 100 | > 100 µM | > 100 | > 100 µM | > 100 µM | > 100 | > 100 µM | > 100 |  |  |  |  |  |  | 
9 | COc1ccc(CCN=C2OCc3ccccc32)cc1OC | > 100 µM | > 100 | 62.3 | > 100 | > 100 µM | > 100 | > 100 µM | 71.3 µM | > 100 | > 100 µM |  |  |  |  |  |  |  | 
10 | Cc1ccc(C(=O)N/N=C(\N=Nc2ccccc2[N+](=O)[O-])c2ccc(N(C)C)cc2)cc1 | > 100 µM | > 100 | > 100 |  | > 100 µM | > 100 | > 100 µM | > 100 µM | > 100 | > 100 µM | > 100 |  |  |  |  |  |  | 
11 | CC(=C\c1ccccc1)/C=C(\C#N)C(N)=O | > 10 µM | > 10 |  | > 10 | > 10 µM | > 10 | > 10 µM |  | > 10 | > 10 µM | > 10 |  |  |  |  |  |  | 
12 | O=C1/C(=C/c2ccccc2)NC(=S)N1CN1CCOCC1 | > 100 µM | > 100 | > 100 | > 100 | > 100 µM | > 100 | > 100 µM | > 100 µM | > 100 | > 100 µM |  |  |  |  |  |  |  | 
13 | COc1ccc(/C=N/n2c(-c3ccccc3)n[nH]c2=O)cc1 |  |  |  | > 100 | > 100 µM | > 100 | > 100 µM | > 100 µM | > 100 | > 100 µM |  |  |  |  |  |  |  | 
14 | CC(NNC(=O)CC(=O)N(C(=O)c1ccccc1)c1ccc(Cl)cc1)c1cc2ccccc2oc1=O (stereo not drawn) | > 10 µM | > 10 |  | > 10 | > 10 µM | > 10 | > 10 µM | > 10 µM | > 10 | > 10 µM | > 10 |  |  |  |  |  |  | 
15 | O=C(CC(=O)c1ccccc1)CC(O)(c1ccccc1)c1ccccc1 |  |  | > 100 | 25.4 | 24.6 µM | 24.5 | 76 µM | 16.6 µM | 23.7 |  | 13.6 |  |  |  |  |  |  | 
16 | CC[C@]1(Cc2ccc(OC)c(OC)c2)[C@@H]2C[C@@H](C3OCCO3)ON2O[C@H](OC2CCCC2(c2ccccc2)c2ccccc2)[C@@H]1OC(C)=O (stereo partly drawn) | 50.1 µM | 53.9 | 45.5 |  | 69.3 µM | 33.5 | > 100 µM | 50.9 µM | 42.4 | 53.9 µM | 29.7 |  |  |  |  |  |  | 
17 | CC(/C=N\NC(=S)N1CCCCC1)=N/NC(=S)N1CCCCC1 | 8.3 µM | > 100 |  | 14.9 | 5.85 µM | 7.16 | 6.08 µM | 6.19 µM | 62.4 | 6.9 µM | 5.68 |  |  |  |  |  |  | 
18 | CC(=O)Nc1ccc(-c2nc3ccccc3s2)cc1 | > 100 µM | > 100 | > 100 |  | > 100 µM | 92.3 | 59.5 µM | > 100 µM | > 100 | > 100 µM |  |  |  |  |  |  |  | 
19 | C[C@@H]1C[C@](O)([C@@H](C)Cl)C(=O)O[C@@H]2CCN3CC=C(COC(=O)[C@]1(C)O)[C@H]23 | > 100 µM | > 100 | > 100 |  | > 100 µM | > 10 | > 100 µM | > 100 µM | > 100 | > 100 µM | > 100 |  |  |  |  |  |  | 
20 | CC(C)C1=C(Cc2ccccc2)C(=O)O/C1=C\c1cc(Cl)c(O)c(Cl)c1 | 44.1 µM | 34.8 | 66.8 | 36.6 | 35.3 µM | 33 | 39.7 µM | 34.8 µM | 32.2 | 52.3 µM |  |  |  |  |  |  |  | 
21 | CC12CC(C#N)(C#N)C(C#N)(CO1)C(=N)O2 (stereo not drawn) | > 100 µM | > 100 |  | 90.8 | > 100 µM | > 100 | > 100 µM | > 100 µM | > 100 | > 100 µM |  |  |  |  |  |  |  | 
22 | CC12CCC3C(CCC4=CC(O)CCC43C=O)C1(O)CCC2c1ccc(=O)oc1 (stereo not drawn) | 0.0936 µM and 0.141 µM |  |  |  | 0.0596 µM and 0.0909 µM |  | 0.0404 µM and 0.0713 µM | 0.0327 µM and 0.0583 µM |  | 0.196 µM and 0.0533 µM | 0.00741 | 0.05 | 0.05 | 0.05 | 0.05 | 0.00453 | 0.0667 | 0.05
